Test results taken from the supplement of paper PMC5908809.

Legend:
[1] = test system: normal NK cells expanded with K562-aAPC; test: percent inhibition of viability; higher = more inhibition; settings: 72 h, IL-2 2.5 ng/mL
Description: (§1)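 Drug sensitivity and resistance testing on K562-aAPC-expanded normal NK cells: 5 concentrations (10-fold steps over a 10,000-fold range), 72 h at 37 °C, viability by CellTiter-Glo normalised to DMSO and benzethonium chloride controls; DSS from the fitted curve.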

DERL-7 (IL-2 2.5 ng/mL) [2] = test: as above; settings: 72 h
IMC-1 (IL-2 20 ng/mL) [3] = test: as above; settings: 72 h
KAI3 (IL-2 2.5 ng/mL) [4] = test: as above; settings: 72 h
KHYG-1 (IL-2 2.5 ng/mL) [5] = test: as above; settings: 72 h
NK-92 (IL-2 2.5 ng/mL) [6] = test: as above; settings: 72 h
NK-YS (IL-2 2.5 ng/mL) [7] = test: as above; settings: 72 h
NKL (IL-2 2.5 ng/mL) [8] = test: as above; settings: 72 h
SNK-6 (IL-2 2.5 ng/mL) [9] = test: as above; settings: 72 h
YT (IL-2 2.5 ng/mL) [10] = test: as above; settings: 72 h
[11] = test system: normal primary NK cells, pool 1 (3 donors) (IL-2 2.5 ng/mL); test: as above; settings: 72 h
[12] = test system: normal primary NK cells, pool 1 (3 donors), resting (IL-2 0 ng/mL); test: as above; settings: 72 h
[13] = test system: normal primary NK cells, pool 2 (3 donors) (IL-2 2.5 ng/mL); test: as above; settings: 72 h
[14] = test system: normal primary NK cells, pool 3 (3 donors) (IL-2 2.5 ng/mL); test: as above; settings: 72 h
[15] = test system: normal NK cells expanded with K562-aAPC; test: drug sensitivity score (DSS) (DSS units); higher = more sensitive; extreme values may be limits of the assay; settings: 72 h; IL-2 2.5 ng/mL
Description: as §1

DERL-7 (IL-2 2.5 ng/mL) [16] = test: as above; settings: 72 h
IMC-1 (IL-2 20 ng/mL) [17] = test: as above; settings: 72 h
KAI3 (IL-2 2.5 ng/mL) [18] = test: as above; settings: 72 h
KHYG-1 (IL-2 2.5 ng/mL) [19] = test: as above; settings: 72 h
NK-92 (IL-2 2.5 ng/mL) [20] = test: as above; settings: 72 h
NK-YS (IL-2 2.5 ng/mL) [21] = test: as above; settings: 72 h
NKL (IL-2 2.5 ng/mL) [22] = test: as above; settings: 72 h
SNK-6 (IL-2 2.5 ng/mL) [23] = test: as above; settings: 72 h
YT (IL-2 2.5 ng/mL) [24] = test: as above; settings: 72 h
[25] = test system: normal primary NK cells, pool 1 (3 donors) (IL-2 2.5 ng/mL); test: as above; settings: 72 h
[26] = test system: normal primary NK cells, pool 1 (3 donors), resting (IL-2 0 ng/mL); test: as above; settings: 72 h
[27] = test system: normal primary NK cells, pool 2 (3 donors) (IL-2 2.5 ng/mL); test: as above; settings: 72 h
[28] = test system: normal primary NK cells, pool 3 (3 donors) (IL-2 2.5 ng/mL); test: as above; settings: 72 h

COc1ccc(C[C@H](NC(=O)[C@H](C)NC(=O)CN2CCOCC2)C(=O)N[C@@H](Cc2ccccc2)C(=O)C2(C)CO2)cc1 (stereo in doubt) [ONX-0914] (max concentration tested 10000 nM)
percent inhibition of viability [%]
Settings	1 nM	10 nM	100 nM	1000 nM	10000 nM
DERL-7 (IL-2 2.5 ng/mL) [2]	6.02	28.7	92.2	101	101
IMC-1 (IL-2 20 ng/mL) [3]	2.14	-0.04	24.1	100	101
KAI3 (IL-2 2.5 ng/mL) [4]	12.7	28.5	93.7	106	102
KHYG-1 (IL-2 2.5 ng/mL) [5]	-0.77	1.13	29.1	104	101
NK-92 (IL-2 2.5 ng/mL) [6]	-8.67	15.8	93.1	106	102
NK-YS (IL-2 2.5 ng/mL) [7]	13.1	15.9	75	105	102
NKL (IL-2 2.5 ng/mL) [8]	10.8	1.76	103	106	102
SNK-6 (IL-2 2.5 ng/mL) [9]	-1.52	17.8	58.1	101	101
YT (IL-2 2.5 ng/mL) [10]	-1.7	3.7	69.5	104	101
[1]	6.48	5.84	57.1	101	101
[11]	-4.25	8.47	92.5	100	100
[12]	-25.3	21.3	91	96.4	97.3
[13]	-9.54	18.2	87.2	99.6	99.8
[14]	-6.21	2.14	73.6	99.9	100

Settings	drug sensitivity score
DERL-7 (IL-2 2.5 ng/mL) [16]	32.7
IMC-1 (IL-2 20 ng/mL) [17]	21.7
KAI3 (IL-2 2.5 ng/mL) [18]	32.9
KHYG-1 (IL-2 2.5 ng/mL) [19]	22.3
NK-92 (IL-2 2.5 ng/mL) [20]	31.6
NK-YS (IL-2 2.5 ng/mL) [21]	28.6
NKL (IL-2 2.5 ng/mL) [22]	30.9
SNK-6 (IL-2 2.5 ng/mL) [23]	25.6
YT (IL-2 2.5 ng/mL) [24]	26.3
[15]	24.8
[25]	30.5
[26]	31.9
[27]	30.7
[28]	26.7

C[C@H]1C[C@@H]2[C@H]([C@@H](O)C[C@@]3(C)[C@H]2CC[C@]3(O)C(=O)CO)[C@@]2(C)C=CC(=O)C=C12 [Methylprednisolone] (max concentration tested 10000 nM)
percent inhibition of viability [%]
Settings	1 nM	10 nM	100 nM	1000 nM	10000 nM
DERL-7 (IL-2 2.5 ng/mL) [2]	-1.31	19	94	100	101
IMC-1 (IL-2 20 ng/mL) [3]	-4.86	-2.72	-15.2	-4.89	-2.93
KAI3 (IL-2 2.5 ng/mL) [4]	-8.86	-6.63	-0.28	7.95	30.7
KHYG-1 (IL-2 2.5 ng/mL) [5]	-4.65	5.05	18.2	46	55.1
NK-92 (IL-2 2.5 ng/mL) [6]	-14.6	-20.1	-27.4	-10.6	3.24
NK-YS (IL-2 2.5 ng/mL) [7]	-6.22	-4.6	0.39	6.37	16.5
NKL (IL-2 2.5 ng/mL) [8]	4.02	31.1	57	63.6	67.6
SNK-6 (IL-2 2.5 ng/mL) [9]	7.96	-13.3	-4.6	-6.43	15.4
YT (IL-2 2.5 ng/mL) [10]	-5.71	10.2	19.4	43.3	53.1
[1]	-4.84	16.6	51.6	67.2	74.4
[11]	6.03	24	56.2	75.3	81.7
[12]	-1.18	47.6	75.4	84.2	87.2
[13]	-6.66	20.1	52.2	69.9	76.8
[14]	-7.17	8.16	33.7	46.2	58.4

Settings	drug sensitivity score
DERL-7 (IL-2 2.5 ng/mL) [16]	32.1
IMC-1 (IL-2 20 ng/mL) [17]	0
KAI3 (IL-2 2.5 ng/mL) [18]	2.54
KHYG-1 (IL-2 2.5 ng/mL) [19]	10.5
NK-92 (IL-2 2.5 ng/mL) [20]	0
NK-YS (IL-2 2.5 ng/mL) [21]	0.89
NKL (IL-2 2.5 ng/mL) [22]	23
SNK-6 (IL-2 2.5 ng/mL) [23]	0.13
YT (IL-2 2.5 ng/mL) [24]	10.3
[15]	20.6
[25]	23.3
[26]	31.7
[27]	21.3
[28]	13.5

O=c1cc(N2CCOCC2)oc2c(-c3ccccc3)cccc12 (max concentration tested 100000 nM)
percent inhibition of viability [%]
Settings	10 nM	100 nM	1000 nM	10000 nM	100000 nM
DERL-7 (IL-2 2.5 ng/mL) [2]	0.77	-1.71	9.97	64.1	97.4
IMC-1 (IL-2 20 ng/mL) [3]	-0.85	-3.31	-2.01	-5.98	86.2
KAI3 (IL-2 2.5 ng/mL) [4]	-1.02	-1.63	6.02	25.9	59.6
KHYG-1 (IL-2 2.5 ng/mL) [5]	-1.25	-1.33	4.59	30.1	89.5
NK-92 (IL-2 2.5 ng/mL) [6]	-5.7	-3.95	-4.94	24	64.1
NK-YS (IL-2 2.5 ng/mL) [7]	-4.69	-3.69	1.75	45.5	83.3
NKL (IL-2 2.5 ng/mL) [8]	-14.3	-15.8	3.05	55.1	69.6
SNK-6 (IL-2 2.5 ng/mL) [9]	3.19	3.24	18.5	59.4	92.6
YT (IL-2 2.5 ng/mL) [10]	1.36	2.44	6.09	37.3	68.7
[1]	-2.73	-3.41	4.76	39.4	94.5
[11]	-1.05	3.02	7.28	35.5	97.6
[12]	-0.68	6.88	14.6	52.6	92.9
[13]	-8.94	-2.33	8.53	41.1	95.9
[14]	-5.94	-9.6	-2.64	20.7	96.5

Settings	drug sensitivity score
DERL-7 (IL-2 2.5 ng/mL) [16]	13.6
IMC-1 (IL-2 20 ng/mL) [17]	4.34
KAI3 (IL-2 2.5 ng/mL) [18]	6.11
KHYG-1 (IL-2 2.5 ng/mL) [19]	8.95
NK-92 (IL-2 2.5 ng/mL) [20]	6.84
NK-YS (IL-2 2.5 ng/mL) [21]	10.1
NKL (IL-2 2.5 ng/mL) [22]	10.7
SNK-6 (IL-2 2.5 ng/mL) [23]	13.6
YT (IL-2 2.5 ng/mL) [24]	8.24
[15]	9.96
[25]	9.7
[26]	12.2
[27]	10.1
[28]	8.63

Cc1cc(C(=O)NOCCO)c(Nc2ccc(I)cc2F)n(C)c1=O [AZD-8330] (max concentration tested 10000 nM)
percent inhibition of viability [%]
Settings	1 nM	10 nM	100 nM	1000 nM	10000 nM
DERL-7 (IL-2 2.5 ng/mL) [2]	10.5	19.5	39.8	44.6	49.1
IMC-1 (IL-2 20 ng/mL) [3]	-6.12	-4.24	-7.8	-3.57	1.54
KAI3 (IL-2 2.5 ng/mL) [4]	6.6	16.3	20.9	25.5	21.5
KHYG-1 (IL-2 2.5 ng/mL) [5]	4.36	28.4	50.2	60.9	59.9
NK-92 (IL-2 2.5 ng/mL) [6]	-20.4	-31.8	-23.9	-11.1	-34
NK-YS (IL-2 2.5 ng/mL) [7]	1.92	6.63	7.16	17	13.5
NKL (IL-2 2.5 ng/mL) [8]	9.59	36	58.2	70.4	65
SNK-6 (IL-2 2.5 ng/mL) [9]	-15.8	-23.2	-25.2	-18.2	-8.48
YT (IL-2 2.5 ng/mL) [10]	1.8	1.88	-1.55	5.74	3.13
[1]	0.89	-5.14	2.35	1.49	5.67
[11]	1.16	3.34	2.94	11.4	20.3
[12]	-12.3	-10.7	-6.76	10.4	33.8
[13]	-6.21	-3.9	6.25	1.91	6.61
[14]	-7.05	-12	-3.49	3.69	8.96

Settings	drug sensitivity score
DERL-7 (IL-2 2.5 ng/mL) [16]	15.5
IMC-1 (IL-2 20 ng/mL) [17]	0
KAI3 (IL-2 2.5 ng/mL) [18]	0
KHYG-1 (IL-2 2.5 ng/mL) [19]	20.8
NK-92 (IL-2 2.5 ng/mL) [20]	0
NK-YS (IL-2 2.5 ng/mL) [21]	1.5
NKL (IL-2 2.5 ng/mL) [22]	24.7
SNK-6 (IL-2 2.5 ng/mL) [23]	0
YT (IL-2 2.5 ng/mL) [24]	0
[15]	0
[25]	1.33
[26]	3.07
[27]	0
[28]	0
